{"source": "paper PMC11291853", "about": "“Haemodynamic, hormonal and renal actions of osteocrin in normal sheep” (Experimental Physiology, 2024)", "origin": "cited, not measured here", "key": {"[1]": {"target": "NPR-C", "details": "purified ovine lung tissue membranes; ref Smith et al., 2000; read-out: K d, binding affinity to NPR-C; cited from earlier work", "protocol": "Actions of OSTN on muscle cells (Subbotina et al., [2015]) and cartilage/bone (Moffatt et al., [2007]; Thomas et al., [2003]) have been studied, whereas few reports have examined the impact of the peptide on plasma concentrations of NPs and on cardiovascular and renal tissues. A crucial issue is the ability of OSTN, in tissues and in plasma, to impact NP concentrations in health or disease. In mice, constant infusion of the 10 kDa peptide [proOSTN (30–130)] at doses of 10 μg/kg/min (∼1000 pmol/kg/min) increased endogenous plasma ANP (by ∼15 pmol/L), similar to increments evoked by administrati ..."}, "[2]": {"details": "sheep; at comparable circulating concentrations (∼30 pmol/L); ref Charles, Espiner, Richards et al., 1996; cited from earlier work", "source_text": "To our knowledge, the metabolism of the 5 kDa OSTN has not been studied previously in vivo. […] Consistent with this is the longer half‐l ..."}, "[3]": {"tested_on": "people", "design": "method as in Hirata et al., 1990", "details": "exogenous ANP infusions achieving plasma concentrations of ∼150 pmol/L, ref Hirata et al., 1990; cited from earlier work"}}}
{"substance": "ANP: atrial natriuretic peptide", "values": [{"measurement": "Kd", "setting": "[1]", "result": "0.008 to 0.016", "unit": "nM"}, {"measurement": "Clearance rate (MCR)", "setting": "[2]", "result": 5.7, "unit": "L/min"}, {"measurement": "Increase in nephrogenous cGMP", "setting": "[3]", "result": 10, "unit": "fold"}]}
